Source: ChEMBL document CHEMBL3885881, “DrugMatrix”

Species on record: Rattus norvegicus
Assay: DrugMatrix - Regimen: Daily Repeat
Assay type: toxicity, organism-based, Sprague-Dawley
Set-up: regimen Daily Repeat, gender Male, age 6-8 weeks
Conditions: in vivo, po, route oral GAVAGE, vehicle .5 % CMC; for ABSOLUTE BASOPHIL / ABSOLUTE EOSINOPHIL / ABSOLUTE LYMPHOCYTE / ABSOLUTE MONOCYTE / ABSOLUTE SEGMENTED NEUTROPHIL / BASOPHIL / EOSINOPHIL / ERYTHROCYTE COUNT / HEMATOCRIT / HEMOGLOBIN / LEUKOCYTE COUNT / LYMPHOCYTE / MEAN CORPUSCULAR HEMOGLOBIN / MEAN CORPUSCULAR HEMOGLOBIN CONCENTRATION / MEAN CORPUSCULAR VOLUME / MONOCYTE / NEUTROPHIL / NUCLEATED RED BLOOD CELLS / PLATELET COUNT: tissue Blood; for ALANINE AMINOTRANSFERASE / ALBUMIN / ALKALINE PHOSPHATASE / ASPARTATE AMINOTRANSFERASE / BLOOD UREA NITROGEN / CARBON DIOXIDE / CHLORIDE / CHOLESTEROL / CREATINE PHOSPHOKINASE / CREATININE / GLUCOSE / LACTATE DEHYDROGENASE / LIPASE / PHOSPHORUS / POTASSIUM / SODIUM / TOTAL BILIRUBIN / TOTAL PROTEIN / URIC ACID: tissue Plasma
[1] = 5 mg/kg, 72 h, dose level Low, time 3 day
[2] = 5 mg/kg, 120 h, dose level Low, time 5 day
[3] = 35 mg/kg, 72 h, dose level High, time 3 day
[4] = 35 mg/kg, 120 h, dose level High, time 5 day

SMILES: COc1cc(CNC(=O)CCCC/C=C/C(C)C)ccc1O [CAPSAICIN]
- ABSOLUTE BASOPHIL [1]: 0 CELLS/uL
- ABSOLUTE EOSINOPHIL [1]: 231.67 CELLS/uL
- ABSOLUTE LYMPHOCYTE [1]: 12823.67 CELLS/uL
- ABSOLUTE MONOCYTE [1]: 176.33 CELLS/uL
- ABSOLUTE SEGMENTED NEUTROPHIL [1]: 735 CELLS/uL
- BASOPHIL [1]: 0%
- EOSINOPHIL [1]: 1.33%
- ERYTHROCYTE COUNT [1]: 5.55 x10E6/uL
- HEMATOCRIT [1]: 34.43%
- HEMOGLOBIN [1]: 12.97 G/DL
- LEUKOCYTE COUNT [1]: 13.97 x10E3/uL
- LYMPHOCYTE [1]: 92%
- MEAN CORPUSCULAR HEMOGLOBIN [1]: 23.37 pg
- MEAN CORPUSCULAR HEMOGLOBIN CONCENTRATION [1]: 37.63 G/DL
- MEAN CORPUSCULAR VOLUME [1]: 62.03 fL
- MONOCYTE [1]: 1.33%
- NEUTROPHIL [1]: 5.33%
- NUCLEATED RED BLOOD CELLS [1]: 0 /100WBC
- PLATELET COUNT [1]: 1334 x10E3/uL
- ALANINE AMINOTRANSFERASE [1]: 40.33 u/L
- ALBUMIN [1]: 4.27 G/DL
- ALKALINE PHOSPHATASE [1]: 433 u/L
- ASPARTATE AMINOTRANSFERASE [1]: 75.33 u/L
- BLOOD UREA NITROGEN [1]: 15 mg/dL
- CARBON DIOXIDE [1]: 25.33 mmol/L
- CHLORIDE [1]: 104.67 MEQ/L
- CHOLESTEROL [1]: 57 mg/dL
- CREATINE PHOSPHOKINASE [1]: 554.67 u/L
- CREATININE [1]: 0.17 mg/dL
- GLUCOSE [1]: 177.67 mg/dL
- LACTATE DEHYDROGENASE [1]: 121 u/L
- LIPASE [1]: 8 u/L
- PHOSPHORUS [1]: 12.47 mg/dL
- POTASSIUM [1]: 6.02 MEQ/L
- SODIUM [1]: 145.37 MEQ/L
- TOTAL BILIRUBIN [1]: 0.23 mg/dL
- TOTAL PROTEIN [1]: 5.9 G/DL
- URIC ACID [1]: 1.5 mg/dL
- ABSOLUTE BASOPHIL [2]: 0 CELLS/uL
- ABSOLUTE EOSINOPHIL [2]: 118.67 CELLS/uL
- ABSOLUTE LYMPHOCYTE [2]: 14371.67 CELLS/uL
- ABSOLUTE MONOCYTE [2]: 374.33 CELLS/uL
- ABSOLUTE SEGMENTED NEUTROPHIL [2]: 1135.33 CELLS/uL
- BASOPHIL [2]: 0%
- EOSINOPHIL [2]: 0.67%
- ERYTHROCYTE COUNT [2]: 5.31 x10E6/uL
- HEMATOCRIT [2]: 33.03%
- HEMOGLOBIN [2]: 12.53 G/DL
- LEUKOCYTE COUNT [2]: 16 x10E3/uL
- LYMPHOCYTE [2]: 89.67%
- MEAN CORPUSCULAR HEMOGLOBIN [2]: 23.6 pg
- MEAN CORPUSCULAR HEMOGLOBIN CONCENTRATION [2]: 37.93 G/DL
- MEAN CORPUSCULAR VOLUME [2]: 62.17 fL
- MONOCYTE [2]: 2.33%
- NEUTROPHIL [2]: 7.33%
- NUCLEATED RED BLOOD CELLS [2]: 0 /100WBC
- PLATELET COUNT [2]: 1256.67 x10E3/uL
- ALANINE AMINOTRANSFERASE [2]: 50 u/L
- ALBUMIN [2]: 4.1 G/DL
- ALKALINE PHOSPHATASE [2]: 314 u/L
- ASPARTATE AMINOTRANSFERASE [2]: 93.67 u/L
- BLOOD UREA NITROGEN [2]: 18.33 mg/dL
- CARBON DIOXIDE [2]: 24.33 mmol/L
- CHLORIDE [2]: 107.67 MEQ/L
- CHOLESTEROL [2]: 68 mg/dL
- CREATINE PHOSPHOKINASE [2]: 629.33 u/L
- CREATININE [2]: 0.21 mg/dL
- GLUCOSE [2]: 153 mg/dL
- LACTATE DEHYDROGENASE [2]: 471.33 u/L
- LIPASE [2]: 8.33 u/L
- PHOSPHORUS [2]: 12.63 mg/dL
- POTASSIUM [2]: 5.84 MEQ/L
- SODIUM [2]: 145.1 MEQ/L
- TOTAL BILIRUBIN [2]: 0.2 mg/dL
- TOTAL PROTEIN [2]: 6.2 G/DL
- URIC ACID [2]: 1.73 mg/dL
- ABSOLUTE BASOPHIL [3]: 0 CELLS/uL
- ABSOLUTE EOSINOPHIL [3]: 0 CELLS/uL
- ABSOLUTE LYMPHOCYTE [3]: 7477.33 CELLS/uL
- ABSOLUTE MONOCYTE [3]: 60 CELLS/uL
- ABSOLUTE SEGMENTED NEUTROPHIL [3]: 496 CELLS/uL
- BASOPHIL [3]: 0%
- EOSINOPHIL [3]: 0%
- ERYTHROCYTE COUNT [3]: 5.28 x10E6/uL
- HEMATOCRIT [3]: 33.53%
- HEMOGLOBIN [3]: 12.7 G/DL
- LEUKOCYTE COUNT [3]: 8.03 x10E3/uL
- LYMPHOCYTE [3]: 92.67%
- MEAN CORPUSCULAR HEMOGLOBIN [3]: 24.13 pg
- MEAN CORPUSCULAR HEMOGLOBIN CONCENTRATION [3]: 37.9 G/DL
- MEAN CORPUSCULAR VOLUME [3]: 63.63 fL
- MONOCYTE [3]: 1%
- NEUTROPHIL [3]: 6.33%
- NUCLEATED RED BLOOD CELLS [3]: 0.33 /100WBC
- PLATELET COUNT [3]: 1342.33 x10E3/uL
- ALANINE AMINOTRANSFERASE [3]: 44 u/L
- ALBUMIN [3]: 4.33 G/DL
- ALKALINE PHOSPHATASE [3]: 316 u/L
- ASPARTATE AMINOTRANSFERASE [3]: 71.33 u/L
- BLOOD UREA NITROGEN [3]: 17.33 mg/dL
- CARBON DIOXIDE [3]: 27.67 mmol/L
- CHLORIDE [3]: 103.5 MEQ/L
- CHOLESTEROL [3]: 75.67 mg/dL
- CREATINE PHOSPHOKINASE [3]: 217 u/L
- CREATININE [3]: 0.22 mg/dL
- GLUCOSE [3]: 141.67 mg/dL
- LACTATE DEHYDROGENASE [3]: 119.33 u/L
- LIPASE [3]: 8.5 u/L
- PHOSPHORUS [3]: 11.67 mg/dL
- POTASSIUM [3]: 5.75 MEQ/L
- SODIUM [3]: 147.2 MEQ/L
- TOTAL BILIRUBIN [3]: 0.27 mg/dL
- TOTAL PROTEIN [3]: 6.13 G/DL
- URIC ACID [3]: 1.1 mg/dL
- ABSOLUTE BASOPHIL [4]: 0 CELLS/uL
- ABSOLUTE EOSINOPHIL [4]: 117.33 CELLS/uL
- ABSOLUTE LYMPHOCYTE [4]: 12147.67 CELLS/uL
- ABSOLUTE MONOCYTE [4]: 58.67 CELLS/uL
- ABSOLUTE SEGMENTED NEUTROPHIL [4]: 1243 CELLS/uL
- BASOPHIL [4]: 0%
- EOSINOPHIL [4]: 1%
- ERYTHROCYTE COUNT [4]: 5.71 x10E6/uL
- HEMATOCRIT [4]: 34.97%
- HEMOGLOBIN [4]: 13.33 G/DL
- LEUKOCYTE COUNT [4]: 13.57 x10E3/uL
- LYMPHOCYTE [4]: 88.67%
- MEAN CORPUSCULAR HEMOGLOBIN [4]: 23.4 pg
- MEAN CORPUSCULAR HEMOGLOBIN CONCENTRATION [4]: 38.13 G/DL
- MEAN CORPUSCULAR VOLUME [4]: 61.27 fL
- MONOCYTE [4]: 0.33%
- NEUTROPHIL [4]: 10%
- NUCLEATED RED BLOOD CELLS [4]: 0 /100WBC
- PLATELET COUNT [4]: 1274 x10E3/uL
- ALANINE AMINOTRANSFERASE [4]: 52.67 u/L
- ALBUMIN [4]: 4.07 G/DL
- ALKALINE PHOSPHATASE [4]: 391 u/L
- ASPARTATE AMINOTRANSFERASE [4]: 83.67 u/L
- BLOOD UREA NITROGEN [4]: 18 mg/dL
- CARBON DIOXIDE [4]: 25.67 mmol/L
- CHLORIDE [4]: 105.33 MEQ/L
- CHOLESTEROL [4]: 62 mg/dL
- CREATINE PHOSPHOKINASE [4]: 166.33 u/L
- CREATININE [4]: 0.21 mg/dL
- GLUCOSE [4]: 177 mg/dL
- LACTATE DEHYDROGENASE [4]: 115.67 u/L
- LIPASE [4]: 8.67 u/L
- PHOSPHORUS [4]: 13.17 mg/dL
- POTASSIUM [4]: 6.01 MEQ/L
- SODIUM [4]: 146.17 MEQ/L
- TOTAL BILIRUBIN [4]: 0.17 mg/dL
- TOTAL PROTEIN [4]: 6.03 G/DL
- URIC ACID [4]: 1.8 mg/dL
